Values joined by “and” are separate entries in the source; they are usually repeats but may differ in a detail not shown here. Equal entries are not always repeated. Where two headings read alike, the source gives them in different places. Marks after values point to notes of the source that are not given here.
Legend:
Cys = conditions: cited from earlier work
Human SQOR [1] = molecular target: T1, Human SQOR (Homo sapiens, UniProt Q9Y6N5); conditions: cited from earlier work
T1 construct: made in house

[2] = pKa and nucleophilicity of LMW persulfides by pH-dependence of reaction rates with mBrB (stopped-flow fluorescence); conditions: for ΔpKa: analog thiol pKa minus persulfide pKa; for pKa, Persulfide / kind with mBrB, Persulfide: I = 0.15, 25 °C, this work; for kind with mBrB, Persulfide: pH-independent rate constant
[3] = cited from earlier work
[4] = cited from earlier work; for kind with mBrB, Analog thiol: pH-independent rate constant of analog thiol
Human SQOR [5] = molecular target: T1, Human SQOR; format: biochemical; conditions: neutral pH
Procedure: The acidity of the persulfidated SQOR was evaluated by the pH-dependence of the steady-state rates. For enzymes that catalyze reactions with one substrate, the kinetic parameter kcat/Km (specificity constant) is an apparent second-order rate constant that reports on the properties of the free enzyme and the free substrate ([32]). kcat/Km can be calculated from the kinetic parameters kcat and Km obtained from typical Michaelis–Menten analysis (Equation 1). […]
SQOR uses three substrates: H2S, a sulfur acceptor (Acc^−), and CoQ (Fig. 1A). At saturating concentrations of H2S and CoQ, the kcat/Km^Acc- represents the apparent rate constant for the reaction between the sulfur acceptor and the Cys379SSH of the bis-persulfidated SQOR, and its pH-dependency reports on the pKa of both free species. Although the pH dependence of human SQOR activity has been reported ([25]), the pH dependence of kcat/Km is unavailable. The steady-state rate of SQOR was determined by monitoring the reduction of coenzyme Q1 (CoQ1) at 278 nm at varying pH at 25 °C. […]. Therefore, in the experiments with cyanide, the reactions were started with cyanide instead of SQOR so that the contribution of SQOR with H2S alone could be subtracted.
In experiments with sulfite, steady-state time courses with varying concentrations of sulfite (0.01–8 mM) were recorded, and linear functions were fitted to the first 15 to 40 s following SQOR addition (Fig. 3A). The slope before SQOR addition was subtracted to correct for the background nonenzymatic reduction of CoQ1, which was minimal. From the hyperbolic fit of the activity versus sulfite concentration plot (Fig. 3B), the kinetic parameters kcat^sulfite and Km^sulfite were obtained, and the kcat/Km^sulfite for each pH were calculated. As expected, when the kcat/Km^sulfite were plotted against pH, a bell-shaped profile was obtained (Fig. 3C), consistent with a reaction between a deprotonated species and a protonated one. An equation with two pKa was fitted to the data (Equation 3), assuming that deprotonated sulfite and protonated SQOR persulfide were the reacting species. […]. […]
The steady-state rates were obtained from linear fits to the data during the first 4 to 20 s following cyanide addition, and the slopes before cyanide addition were subtracted. The kcat/Km^cyanide at each pH was calculated according to Equation 2 using the enzyme (50 nM) and cyanide (90 μM) initial concentrations. […]
Human SQOR was expressed and purified as reported previously ([24], [25]). SQOR concentration was determined from the FAD absorbance at 450 nm, using ε = 11,500 M^−1 cm^−1 ([25]). […]
The activity of SQOR was measured at different pHs in a temperature-controlled spectrophotometer (Shimadzu UV-2600 or UV-1900i). […]

Human TST = Human TST (Homo sapiens, UniProt Q16762); conditions: cited from earlier work
Cys248 [6] = molecular target: T2, Cys248 (UniProt position 248, PLIATCRKGVT); assay: kinetics; conditions: 25 °C; I = 0.15 M (120 mM NaCl); acetic/MES/Tris (15 mM acetic acid, 15 mM MES, 30 mM Tris, 120 mM NaCl, 0.1 mM DTPA); TST thiol (sulfur-free) form reacting with thiosulfate, pseudo-first order
Cys248 [7] = molecular target: T2, Cys248; conditions: cited from earlier work
bovine TST = conditions: cited from earlier work
TST thiol = TST thiol (Homo sapiens, UniProt Q16762)
Procedure: The pH-dependency of the reaction rates of TST persulfide with sulfur acceptors and of TST thiol with thiosulfate were studied by following changes in the intrinsic fluorescence (λex = 295 nm, US 360 nm bandpass filter) in the stopped-flow spectrofluorimeter.
To prepare TST thiol, ∼ 100 μM thiosulfate was added to TST stocks ( ∼ 20 μM) at room temperature. After 15 min, ∼ 200 μM cyanide was added and left to react for 10 min. The remaining LMW compounds were removed with a PD MidiTrap G-25 column equilibrated with 10 mM Tris buffer, pH 8.5. The TST thiol was diluted in ultrapure water (1.8–2.0 μM) in one of the stopped-flow syringes and reacted with thiosulfate (400 μM) prepared in the other syringe in either acetic/MES/Tris buffer 2× (pH 3.68–8.75) or in ACES/Tris/ethanolamine buffer 2× (pH 6.68–10.34), at 25 °C. The final concentrations were halved as a result of the symmetrical stopped-flow mixing. The decrease in the intrinsic fluorescence caused by persulfide formation was recorded during 0.8 to 200 s depending on the time course, and the final pH was measured.

[8] = forms as drawn in Table 1 (ammonium form for CysOMeSSH)

Chain of Human TST (Q16762 whole entry): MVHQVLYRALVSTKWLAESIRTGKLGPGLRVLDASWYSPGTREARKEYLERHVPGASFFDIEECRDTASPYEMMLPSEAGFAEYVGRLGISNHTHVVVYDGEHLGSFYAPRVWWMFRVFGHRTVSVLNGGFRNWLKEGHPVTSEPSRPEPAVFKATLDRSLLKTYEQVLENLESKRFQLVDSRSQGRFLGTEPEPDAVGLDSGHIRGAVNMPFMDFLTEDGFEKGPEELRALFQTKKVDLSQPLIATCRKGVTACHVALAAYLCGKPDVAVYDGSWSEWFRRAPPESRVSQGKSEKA
Chain of TST thiol (Q16762 whole entry): as above
T1 sequence (Q9Y6N5 whole entry): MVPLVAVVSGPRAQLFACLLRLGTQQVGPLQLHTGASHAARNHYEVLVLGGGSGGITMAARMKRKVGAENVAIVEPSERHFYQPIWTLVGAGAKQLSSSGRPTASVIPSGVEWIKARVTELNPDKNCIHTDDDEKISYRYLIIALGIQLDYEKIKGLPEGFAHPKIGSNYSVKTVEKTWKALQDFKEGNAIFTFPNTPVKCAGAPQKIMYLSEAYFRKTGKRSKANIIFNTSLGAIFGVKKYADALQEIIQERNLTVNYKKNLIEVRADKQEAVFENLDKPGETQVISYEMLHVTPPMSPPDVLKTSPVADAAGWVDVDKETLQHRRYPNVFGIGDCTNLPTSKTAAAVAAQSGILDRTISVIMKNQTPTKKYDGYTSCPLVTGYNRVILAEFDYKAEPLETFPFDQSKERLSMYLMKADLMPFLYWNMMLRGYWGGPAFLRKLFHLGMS

3-Mercaptopyruvate sulfurtransferase (MPST) (Homo sapiens)
pKa (Cys): 5.2

COC1=C(OC)C(=O)C(CC=C(C)C)=C(C)C1=O [CoQ1, coenzyme Q1]
Km (Human SQOR [1]; pH 7.5, read-out: Km^CoQ1): 19 µM

CC(C)c1ccccc1 [Cumene]
ΔpKa [2]: >3 | pKa, Analog thiol ([3]; analog thiol of the persulfide, predicted value based on similar thiols): >10 ^h | pKa, Persulfide [3]: 7.0 ^g

COC(=O)[C@@H](N)CSS [CysOMeSS^−, cysteine methyl ester persulfide]
pKa, Persulfide [2, 8]: 4.6 ± 0.1 ^a | pKa, Persulfide ([2]; second pKa of two-pKa fit, amino (NH2) form of CysOMeSSH): 6.3 ± 0.6 ^a | ΔpKa [2]: 2.8 | ΔpKa ([2]; amino (NH2) form of CysOMeSSH): 2.6 | kind with mBrB, Persulfide [2]: 3.8 ± 0.4 ^a × 10^3 M^−1 s^−1 | kind with mBrB, Persulfide ([2]; amino (NH2) form of CysOMeSSH): 5.4 ± 0.8 ^a × 10^3 M^−1 s^−1

N[C@@H](CSS)C(=O)O [CysSS^−, cysteine persulfide]
pKa, Persulfide [2, 8]: 5.2 ± 0.1 ^a | ΔpKa [2]: 3.1 | kind with mBrB, Persulfide [2]: 3.2 ± 0.1 ^a × 10^3 M^−1 s^−1 | pH-independent second-order rate constant, kind, with mBrB ([2]; persulfide, 25 °C): (3.2 ± 0.1) × 10^3 M^−1 s^−1

NCCSS [CystSS^−, cysteamine persulfide]
pKa, Persulfide [2, 8]: 4.87 ± 0.09 ^a | kind with mBrB, Persulfide [2]: 3.9 ± 0.2 ^a × 10^3 M^−1 s^−1

COC(=O)[C@@H](N)CS [Cysteine methyl ester]
pKa, Analog thiol ([3]; analog thiol, amino (NH2) form): 8.88 ^b | pKa, Analog thiol ([3]; analog thiol, ammonium form): 7.44 ^b | pKa of the ammonium group ([3]; listed as CysOMeSH): 6.88 | pKa of the ammonium group ([3]; listed as CysOMeS^−): 8.32

N[C@@H](CS)C(=O)O [Cysteine]
pKa, Analog thiol ([3]; analog thiol): 8.29 ^d | kind with mBrB, Analog thiol [4]: 105 ^d M^−1 s^−1

N[C@@H](CCC(=O)N[C@@H](CSS)C(=O)NCC(=O)O)C(=O)O [GSS^−, glutathione persulfide]
ΔpKa [2]: 3.49 | pKa, Persulfide ([4]; I = 0.15, 25 °C): 5.45 ± 0.03 ^e | kind with mBrB, Persulfide ([4]; pH-independent rate constant, I = 0.15, 25 °C): 9.0 ± 0.2 ^e × 10^3 M^−1 s^−1

N[C@@H](CCC(=O)N[C@@H](CS)C(=O)NCC(=O)O)C(=O)O [Glutathione, glutathione]
Km (Human SQOR [1]; pH 7.4, read-out: Km^GSH): 8000 µM | pKa, Analog thiol ([3]; analog thiol): 8.94 ^d | pKa of the glycyl carboxylic acid ([3]; neutral variant of GSH): 3.36 | pKa of the glycyl carboxylic acid ([3]; positive variant of GSH): 3.12 | kind with mBrB, Analog thiol [4]: 208 ^d M^−1 s^−1

NC(CCSS)C(=O)O (stereo not shown) [HcySS^−, homocysteine persulfide]
kind with mBrB, Persulfide [2]: 5.4 ± 0.1 ^a × 10^3 M^−1 s^−1

NC(CCS)C(=O)O (stereo not shown) [Homocysteine]
pKa, Analog thiol ([3]; analog thiol): 9.1 ^d

S [Persulfide H2S, hydrogen sulfide]
Km (Human SQOR [1]; pH 7.4, H2S as sulfur acceptor, read-out: Km^H2S (Acceptor)): 350 µM | Km (Human SQOR [1]; pH 7.5, first step of catalysis, read-out: Km^H2S (Donor)): 13 µM

Cl [chloride]
increase of apparent Km^sulfite (Human SQOR [5]; in the presence of 120 mM chloride versus absence): ~20 fold | Ki (Human SQOR [5]; sulfite as sulfur acceptor, read-out: Ki (estimated), reversible competitive inhibition versus sulfite): ~7.4 mM

O=S(O)(O)=S [thiosulfate]
thiosulfate concentration causing inhibition of TST (Human TST; b33: with 312 μM cyanide): 30 mM and > 30 mM | Km (Human TST; read-out: Km^thiosulfate): 18000 to 45000 µM

OCCSS [β-MESS^−, β-mercaptoethanol persulfide]
pKa, Persulfide [2, 8]: 5.8 ± 0.1 ^a | ΔpKa [2]: 3.8 | kind with mBrB, Persulfide [2]: 7.5 ± 0.4 ^a × 10^3 M^−1 s^−1

OCCS [β-Mercaptoethanol]
pKa, Analog thiol ([3]; analog thiol): 9.6 ^d | kind with mBrB, Analog thiol [4]: 519 ^d M^−1 s^−1

Thiosulfate sulfurtransferase (TST, rhodanese), thiol form (Homo sapiens)
pKa (Cys248 [6]): 6.5 ± 0.1

Thiosulfate sulfurtransferase (rhodanese), bovine liver (Bos taurus)
pKa (Cys248 [7]; free enzyme thiol ('the thiol alone')): 7.8 | pKa (Cys248 [7]; thiol in complex with substrate analogs): 6.75 to 7.05 | pKa (Cys248 [7]; thiol in complex with thiosulfate): 6.5

B1: bovine TST: bovine thiosulfate sulfurtransferase (rhodanese), literature values (protein, UniProt P00586 2-297, looked up)
Thiosulfate sulfurtransferase: VHQVLYRALVSTKWLAESVRAGKVGPGLRVLDASWYSPGTREARKEYLERHVPGASFFDIEECRDKASPYEVMLPSEAGFADYVGSLGISNDTHVVVYDGDDLGSFYAPRVWWMFRVFGHRTVSVLNGGFRNWLKEGHPVTSEPSRPEPAIFKATLNRSLLKTYEQVLENLESKRFQLVDSRAQGRYLGTQPEPDAVGLDSGHIRGSVNMPFMNFLTEDGFEKSPEELRAMFEAKKVDLTKPLIATCRKGVTACHIALAAYLCGKPDVAIYDGSWFEWFHRAPPETWVSQGKGGKA
pKa of the thiol alone (bovine TST; bovine TST): 7.8 | pKa of the thiol in complex with substrate analogs (bovine TST): 6.75 to 7.05 | pKa of the thiol in complex with thiosulfate (bovine TST): 6.5

B2: TST thiol (protein, UniProt Q16762 2-297, looked up)
Thiosulfate sulfurtransferase: VHQVLYRALVSTKWLAESIRTGKLGPGLRVLDASWYSPGTREARKEYLERHVPGASFFDIEECRDTASPYEMMLPSEAGFAEYVGRLGISNHTHVVVYDGEHLGSFYAPRVWWMFRVFGHRTVSVLNGGFRNWLKEGHPVTSEPSRPEPAVFKATLDRSLLKTYEQVLENLESKRFQLVDSRSQGRFLGTEPEPDAVGLDSGHIRGAVNMPFMDFLTEDGFEKGPEELRALFQTKKVDLSQPLIATCRKGVTACHVALAAYLCGKPDVAVYDGSWSEWFRRAPPESRVSQGKSEKA
modifications: active-site cysteine thiol
pH-independent rate constant, Cyanide (TST thiol): No reaction | pH-independent rate constant, Sulfite (TST thiol): No reaction | second-order rate constant with thiosulfate (TST thiol): ~30000 M⁻¹ s⁻¹ | pKa of the decrease in kobs at alkaline pH (TST thiol; pH 6.68): ~10
